How the values were obtained:
[1] = 5.5 μM; cited from earlier work
Description: The results of DPPH and ABTS tests for the (+)10-charged 16, 18, 20, 22, 24, and 26 bola dendrimers at three concentrations (3.78, 7.69, and 15.38 μM) are shown in Figure 5, whereas results of FRAP and CUPRAC tests are shown in Figure 6. Data include also two neutral derivatives 19 and 25 for the PABA and PAS series, respectively. Considering TEAC values, dendrimers show different level of scavenging capacity in both tests, being better scavengers of radical cations than single electron bearing neutral radicals. The highest cationic radical scavenging ability in ABTS test was found for […] ...

[2] = test system: rat primary cerebellar granule cells (CGC); assay type: cell-based; details: 5 μM, 30 min exposure in Locke 25, PI staining 24 h later; Figure 3
Description: Primary CGC cultures were prepared from seven-day-old Wistar rats of both sexes as previously described. Procedures using rat pups were performed in accordance with international standards of animal care guidelines and were approved by the Local Care of Experimental Animals Committee. The culture was incubated in growth basal Eagle’s medium (Gibco, Thermo Fisher Scientific, Grand Island, NY, USA), supplemented with 10% fetal calf serum, 25 mM KCl, 4 mM glutamine, penicillin (50 U/mL), and streptomycin ([…]) (Sigma-Aldrich, Poznan, Poland). The density of the cell suspension seeded on the 24-well plates, coated with poly-L-lysine, was 1 × 10^6 cells per well. […]
Stock solutions were prepared by dissolving dendrimers in dimethylsulfoxide (DMSO) (Sigma-Aldrich, Poznan, Poland), and subsequent dilutions were made in cell medium. The effect of the dendrimers on CGC viability was assessed 24 h after a 30 min exposure of the cultures to the tested compounds using propidium iodide (PI) staining. […] Then, the cells were fixed with 80% methanol, stained with PI (0.5 µg/mL), and viable and dead neurons were counted using an Axiovert fluorescence microscope (Carl Zeiss AG, Germany). The viability of the neurons was determined as percentages of live cells in proportion to all cells.

[3] = Cupric reducing antioxidant capacity (CUPRAC)
Description: The CUPRAC method was performed according to procedure described by Apak et al. with small modifications, which was necessary to correlate this method to other used assays. CUPRAC working solution was prepared freshly each time. The stock solution including 0.96 mL ammonium acetate buffer (1 M, pH 7), 0.96 mL 7.5 mM neocuproine solution in MeOH, and 0.96 mL of 10 mM CuCl2 in water was kept away from light. Then, 240 μL dendrimer, Trolox, or solvent (blank sample) standard solution was added to CUPRAC stock solution, and after 25 min, absorbance at 450 nm was recorded. Results were expressed as μM Trolox L^−1. All determinations were carried out in triplicate.

[4] = Ferric reducing antioxidant power (FRAP); details: pH 3.6, 593 nm after 15 min; Figure 6
Description: The FRAP assay was performed according to previously described method with some modifications. FRAP working solution was prepared freshly each time. The stock solution included 2.40 mL acetate buffer (300mM, pH 3.6), 0.24 mL 10 mM TPTZ solution in 40 mM HCl, and 0.24 mL of 20 mM FeCl3 × 6H2O in water. The mixture was kept away from light and warmed at 37 °C before using. Then, 240 μL sample Troloxor solvent (blank sample) standard solution was added to FRAP stock solution. The absorbance was measured at 593 nm after 15 min. Final concentration of methanolic solutions of the studied dendrimers were in range 0–24 μM and Trolox® solutions from 0 to 50 μM.All determinations were carried out in triplicate.

O=C(O)/C=C/c1ccc(O)c(O)c1 [caffeic acid]
Trolox equivalence in DPPH test [1]: 6–7

Nc1ccc(S(=O)(=O)NCCCCCOc2cc(OCCNS(=O)(=O)c3ccc(N)cc3)cc(C(=O)NCCNC(=O)[C@H](Cc3c[nH]c4ccccc34)NC(=O)[C@H](CCCCNC(=O)c3cc(OCCNC(=O)[C@@H](N)CCCCNC(=O)[C@@H](N)Cc4c[nH]c5ccccc45)cc(OCCNC(=O)[C@@H](N)CCCCNC(=O)[C@@H](N)Cc4c[nH]c5ccccc45)c3)NC(=O)c3cc(OCCNC(=O)[C@@H](N)CCCCNC(=O)[C@@H](N)Cc4c[nH]c5ccccc45)cc(OCCNC(=O)[C@@H](N)CCCCNC(=O)[C@@H](N)Cc4c[nH]c5ccccc45)c3)c2)cc1 [compound 26]
viable CGC cells conserved [2]: 55–85%
enhancement of antioxidant power in transition between FRAP/CUPRAC model ([3]; 3.78 and 7.69 μM): ~11 fold

Nc1ccc(S(=O)(=O)O)cc1 [p-aminobenzenesulfonic acid]
redox potential / reducing capacity in FRAP test (in words) [4]: insignificant
redox potential / reducing capacity in CUPRAC test (in words) ([3]; pH 7, 450 nm after 25 min, Figure 6): insignificant

— paper PMC8000084, “Peptide Dendrimers with Non-Symmetric Bola Structure Exert Long Term Effect on Glioblastoma and Neuroblastoma Cell Lines” (Biomolecules, 2021)
